According to patent US12281060B2, “Remodilins for airway remodeling and organ fibrosis” (The University of Chicago, priority 2019, dated 2025):
“Also recorded” adds a separate entry of the source.

What was measured:
[1] = Plasma pharmacokinetics and tissue distribution (liver, lung, thyroid) after single oral doses; assay type: in vivo; conditions: after oral administration, 10 or 50 mg/kg; male C57Bl/6 mice
Description: Studies were performed to characterize plasma pharmacokinetics (PK) and tissue distribution (liver, lung, thyroid) of 5 potential lead candidates in male C57Bl/6 mice receiving single oral doses of 10 mg/kg or 50 mg/kg.

HDM-treated Balb/c mice [2] = assay: HDM-induced airway constrictor hyperresponsiveness, methacholine challenge; assay type: in vivo; conditions: 12.5 mg/kg BID IP; HDM model, female Balb/c mice; vs 20% Solutol vehicle
Description: (§1) FIGS. 4A-4B. Effect of remodilin treatment (remodilin 83, 12.5 mg/kg BID IP) on airway constrictor hyperresponsiveness and remodeling induced by house dust mite (HDM) exposure in female Balb/c mice. FIG. 4A Airway constrictor hyperresponsiveness methacholine dose-response curves for mice treated with remodilin 83 or 20% Solutol (vehicle).
A mouse model of acute allergic asthma was used in which mice were sensitized with house dust mite (HDM) extracts. […] As depicted in FIGS. 1A and 1B, male and female Balb/c mice treated with HDM were subjected to methacholine challenge. […] The area under the curve increased by at least 3.6-fold in each sex.
(§2) As depicted in FIG. 4A, twice-daily intraperitoneal administration of remodilins (12.5 mg/kg) was evaluated.

HDM-treated Balb/c mice [3] = assay: HDM-induced airway remodeling, MYH11 immunostain-positive airway smooth muscle area; assay type: in vivo; conditions: 12.5 mg/kg BID IP, HDM model, female Balb/c mice, large airways, vs 20% Solutol vehicle
Description: as §1
Furthermore, three-way analysis of variance (Ctrl vs HDM, Female vs Male, Small vs Large Airways) confirmed that the HDM influence on airway remodeling was significant at P=0.0007.
as §2

bleomycin-treated mice = assay: Bleomycin-induced lung fibrosis in mice; assay type: in vivo; conditions: 25 mg/kg QD IP
Description: FIGS. 8A-8B. Treatment with remodilin 83 (25 mg/kg QD IP) reduced pulmonary fibrosis in bleomycin-treated mice. Remodilin or vehicle (DMSO) was given on days 7-21 after i.t. bleomycin (1 U/kg). Both lung hydroxyproline (FIG. 8A) and collagen levels (FIG. 8B) were lower in remodilin 83-treated mice than in control mice.
Both lung hydroxyproline (FIG. 8A) and collagen levels (FIG. 8B) were lower in remodilin 83-treated mice (systemically-administered) than in control mice.

[4] = system: serum response factor (SRF); assay: Luciferase reporter assay of TGFβ-stimulated SRF activation; assay type: cell-based, human
Text: FIGS. 6A-6B. Remodilins inhibit myofibroblast transformation. Remodilin 4 inhibits TGFβ-stimulated serum response factor (SRF) activation (FIG. 6B) but not Smad signaling (FIG. 6A), as determined using luciferase reporter assays.
It is well-established that myofibroblast transformation (MFT) is a critical step in the development of pulmonafy fibrisos. […] Maintenance of Smad signaling can preserve other beneficial effects of TGFβ. As depicted in FIG. 7, four remodilins inhibited smooth muscle ACTA2 and fibronectin-1 (FN1) protein expression (markers of MFT) in dose-dependent fashion.

[5] = days 7-21 after i.t. bleomycin, vs control mice

With `CC1CN(S(=O)(=O)c2ccc(NC(=O)c3ccc(Br)c(I)c3)cc2)CCN1` (stereo not drawn) [remodilin 83, 4-Bromo-3-iodo-N-(4-((3-methylpiperazin-1-yl)sulfonyl)phenyl)benzamide] the “accumulation in lung vs. other tissues (liver, thyroid) or plasma” value (shortened to “accumulation in lung vs. other tissues”) [1] was “higher concentrations in lung; also recorded: selective accumulation”, the “development of airway constrictor hyperresponsiveness” value (HDM-treated Balb/c mice [2]) was “significantly blunted” and the “MYH11 immunostain-positive airway smooth muscle area normalized to epithelial length” value (HDM-treated Balb/c mice [3]) was “significantly lower”. The “MYH11 immunostain-positive airway smooth muscle area normalized to epithelial length” value (HDM-treated Balb/c mice [3]; listed as Remodilin 83) was “significantly lowered”, the “pulmonary fibrosis (bleomycin-induced)” value (bleomycin-treated mice; days 7-21 after i.t. bleomycin 1 U/kg, vs DMSO vehicle) was “inhibitory activity; also recorded: reduced” and the lung collagen levels (bleomycin-treated mice; [5]) was “lower”. For the same compound, the lung hydroxyproline (bleomycin-treated mice; [5]) was “lower”.

For `COc1ccc(C(=O)Nc2ccc(S(=O)(=O)N3CCCCC3C)cc2)cc1I` (stereo not drawn) [remodilin 39, 3-Iodo-4-methoxy-N-(4-((2-methylpiperidin-1-yl)sulfonyl)phenyl) benzamide], the “accumulation in lung vs. other tissues” value [1] was “selective accumulation”.

With `CC1CNCCN1S(=O)(=O)c1ccc(NC(=O)c2ccc(Br)c(I)c2)cc1` (stereo not drawn) [remodilin 86, 4-Bromo-3-iodo-N-(4-((2-methylpiperazin-1-yl)sulfonyl)phenyl)benzamide] the “accumulation in lung vs. other tissues” value [1] was “higher concentrations in lung; also recorded: selective accumulation”.

In the case of `CCN(CC)S(=O)(=O)c1ccc(NC(=O)c2ccc(OC)c(I)c2)cc1` [remodilin 4, N-(4-(N,N-diethylsulfamoyl)phenyl)-3-iodo-4-methoxybenzamide], the “TGFβ-stimulated serum response factor (SRF) activation” value [4] is reported as “inhibits”.

For `O=C(Nc1ccc(S(=O)(=O)N2CCCC2)cc1)c1ccc(Br)c(I)c1` [remodilin 50, 4-Bromo-3-iodo-N-(4-(pyrrolidin-1-ylsulfonyl)phenyl)benzamide], the “accumulation in lung vs. other tissues” value [1] was “selective accumulation”.

For `COc1ccc(C(=O)Nc2ccc(S(=O)(=O)N3CCNCC3)cc2)cc1I` [remodilin 61, 3-Iodo-4-methoxy-N-(4-(piperazin-1-ylsulfonyl)phenyl)benzamide], the “accumulation in lung vs. other tissues” value [1] was “higher concentrations in lung; also recorded: selective accumulation”.
